Paper PMC4460250, “Systems Pharmacology Dissecting Holistic Medicine for Treatment of Complex Diseases: An Example Using Cardiocerebrovascular Diseases Treated by TCM” (Evidence-based Complementary and Alternative Medicine : eCAM, 2015)

What was measured:
[1] = in vivo; cited from earlier work
[2] = in vivo

| SMILES | HIA(Human Intestinal Absorption) [1] | Class(High: HIA value ≥0.7; Low: HIA value < 0.7) [2] |
| --- | --- | --- |
| CCOc1cc(CC(=O)NC(CC(C)C)c2ccccc2N2CCCCC2)ccc1C(=O)O (stereo in doubt) [Repaglinide(R)] | 1 | High (key: High: HIA value ≥0.7; Low: HIA value < 0.7) |
| CCn1cc(C(=O)O)c(=O)c2cc(F)c(N3CCN[C@H](C)C3)c(F)c21 [Lomefloxacin(R)] | 0.99 | High (key: High: HIA value ≥0.7; Low: HIA value < 0.7) |
| C[C@H](O)Cn1cnc2c1c(=O)n(C)c(=O)n2C [Proxyphylline(S)] | 1 | High (key: High: HIA value ≥0.7; Low: HIA value < 0.7) |
| CC(C)(Oc1ccc([C@@H]2CC2(Cl)Cl)cc1)C(=O)O [Ciprofibrate(S)] | 0.99 | High (key: High: HIA value ≥0.7; Low: HIA value < 0.7) |
| COc1ccccc1OCCNC[C@H](O)COc1cccc2[nH]c3ccccc3c12 [Carvedilol(S)] | 0.8 | High (key: High: HIA value ≥0.7; Low: HIA value < 0.7) |
| CN1C(=O)C[C@@](C)(c2ccccc2)C1=O [Methsuximide(S)] | 1 | High (key: High: HIA value ≥0.7; Low: HIA value < 0.7) |
| COc1ccccc1OC[C@@H](O)COC(N)=O [Methocarbamol(R)] | 1 | High (key: High: HIA value ≥0.7; Low: HIA value < 0.7) |
| Cc1ccccc1N1C(=O)c2cc(S(N)(=O)=O)c(Cl)cc2N[C@H]1C [Metolazone(R)] | 0.64 | Low (key: High: HIA value ≥0.7; Low: HIA value < 0.7) |
| CC1(C)S[C@@H]2[C@H](NC(=O)C(C(=O)Oc3ccccc3)c3ccccc3)C(=O)N2[C@H]1C(=O)O (stereo partly drawn) [Carfecillin(R)] | 0.99 | High (key: High: HIA value ≥0.7; Low: HIA value < 0.7) |
| CCCN[C@H]1CCc2nc(N)sc2C1 [Pramipexole(S)] | 0.8 | High (key: High: HIA value ≥0.7; Low: HIA value < 0.7) |
| N=C(N)NC[C@@H]1COc2ccccc2O1 [Guanoxan(R)] | 0.5 | Low (key: High: HIA value ≥0.7; Low: HIA value < 0.7) |
| CN1C(=O)[C@H](O)N=C(c2ccccc2Cl)c2cc(Cl)ccc21 [Lormetazepam(S)] | 1 | High (key: High: HIA value ≥0.7; Low: HIA value < 0.7) |
| Cc1ncc2n1-c1ccc(Cl)cc1C(c1ccccc1F)=NC2 [Midazolam] | 1 | High (key: High: HIA value ≥0.7; Low: HIA value < 0.7) |
| CC(C)(C)NC[C@H](O)c1ccc(O)c(CO)n1 [Pirbuterol(S)] | 0.6 | Low (key: High: HIA value ≥0.7; Low: HIA value < 0.7) |
| CC1=CC(=O)N2CC(=O)N(C)c3ccc(Cl)cc3C2(c2ccccc2)O1 (stereo not shown) [Ketazolam] | 1 | High (key: High: HIA value ≥0.7; Low: HIA value < 0.7) |
| NS(=O)(=O)c1cc2c(cc1Cl)N[C@@H](CC1CCCC1)NS2(=O)=O [Cyclopenthiazide(R)] | 1 | High (key: High: HIA value ≥0.7; Low: HIA value < 0.7) |
| NC[C@@H]1O[C@H](O[C@H]2[C@@H](O)[C@H](O[C@@H]3[C@@H](O)[C@H](N)C[C@H](N)[C@H]3O[C@H]3O[C@H](CN)[C@@H](O)[C@H](O)[C@H]3N)O[C@@H]2CO)[C@H](N)[C@@H](O)[C@@H]1O [Neomycin] | 0.03 | Low (key: High: HIA value ≥0.7; Low: HIA value < 0.7) |
| O=C(NC[C@@H]1CCCCN1)c1cc(OCC(F)(F)F)ccc1OCC(F)(F)F [Flecainide(S)] | 0.81 | High (key: High: HIA value ≥0.7; Low: HIA value < 0.7) |
| COc1c(N2CCN[C@H](C)C2)c(F)cc2c(=O)c(C(=O)O)cn(C3CC3)c12 [Gatifloxacin(R)] | 0.96 | High (key: High: HIA value ≥0.7; Low: HIA value < 0.7) |
| COCCc1ccc(OC[C@H](O)CNC(C)C)cc1 [Metoprolol(R)] | 0.96 | High (key: High: HIA value ≥0.7; Low: HIA value < 0.7) |
| CCCNC1CCc2nc(N)sc2C1 (stereo in doubt) [Pramipexole(R)] | 0.8 | High (key: High: HIA value ≥0.7; Low: HIA value < 0.7) |

| SMILES | HIA(Human Intestinal Absorption) [1] | Class(High: HIA value ≥0.7; Low: HIA value < 0.7) [2] |
| --- | --- | --- |
| CCCCCCCN(CC)CCC[C@@H](O)c1ccc(NS(C)(=O)=O)cc1 [Ibutilide(R)] | 0.82 | High (key: High: HIA value ≥0.7; Low: HIA value < 0.7) |
| C[N+]1(C)CCCC1COC(=O)C(O)(c1ccccc1)c1ccccc1 (stereo not shown) [Poldine] | 0.05 | Low (key: High: HIA value ≥0.7; Low: HIA value < 0.7) |
| CN(C)CCC[C@]1(c2ccc(F)cc2)OCc2cc(C#N)ccc21 [Citalopram(R)] | 1 | High (key: High: HIA value ≥0.7; Low: HIA value < 0.7) |
| CCCCCc1cc(O)c2c(c1)OC(C)(C)[C@@H]1CCC(C)=C[C@@H]21 [Tetrahydrocannabinol] | 0.93 | High (key: High: HIA value ≥0.7; Low: HIA value < 0.7) |
| N=C(N)NC(=O)c1nc(Cl)c(N)nc1N [Amiloride] | 0.5 | Low (key: High: HIA value ≥0.7; Low: HIA value < 0.7) |
| CN1C(=O)[C@@H](O)N=C(c2ccccc2Cl)c2cc(Cl)ccc21 [Lormetazepam(R)] | 1 | High (key: High: HIA value ≥0.7; Low: HIA value < 0.7) |
| CN(Cc1cnc2nc(N)nc(N)c2n1)c1ccc(C(=O)N[C@@H](CCC(=O)O)C(=O)O)cc1 [Methotrexate(S)] | 1 | High (key: High: HIA value ≥0.7; Low: HIA value < 0.7) |
| C[C@H](CN1c2ccccc2Sc2ccccc21)N(C)C [Promethazine(R)] | 0.95 | High (key: High: HIA value ≥0.7; Low: HIA value < 0.7) |
| CCN(CCCCOC(=O)c1ccc(OC)c(OC)c1)[C@@H](C)Cc1ccc(OC)cc1 [Mebeverine(S)] | 0.9 | High (key: High: HIA value ≥0.7; Low: HIA value < 0.7) |
| CN[C@@H]1[C@@H](O)[C@@H](O[C@@H]2[C@@H](O)[C@H](O[C@H]3O[C@H]([C@@H](C)N)CC[C@H]3N)[C@@H](N)C[C@H]2N)OC[C@]1(C)O [GentamicinC2(R)] | 0.01 | Low (key: High: HIA value ≥0.7; Low: HIA value < 0.7) |
| CC(C)c1cccc(C(C)C)c1O [Propofol] | 1 | High (key: High: HIA value ≥0.7; Low: HIA value < 0.7) |
| NCCC[C@@](N)(C(=O)O)C(F)F [Eflornithine(R)] | 0.55 | Low (key: High: HIA value ≥0.7; Low: HIA value < 0.7) |
| CC[C@]1(c2ccc(N)cc2)CCC(=O)NC1=O [Aminoglutethimide(R)] | 1 | High (key: High: HIA value ≥0.7; Low: HIA value < 0.7) |
| O[C@@](CCN1CCCCC1)(c1ccccc1)C1CCCCC1 [Trihexyphenidyl(R)] | 1 | High (key: High: HIA value ≥0.7; Low: HIA value < 0.7) |
| Cc1nccn1C[C@H]1CCc2c(c3ccccc3n2C)C1=O [Ondansetron(R)] | 1 | High (key: High: HIA value ≥0.7; Low: HIA value < 0.7) |
| CN1C(=O)NC(=O)C(C)(C2=CCCCC2)C1=O (stereo not shown) [Hexobarbital] | 0.95 | High (key: High: HIA value ≥0.7; Low: HIA value < 0.7) |
| NS(=O)(=O)c1cc([C@]2(O)NC(=O)c3ccccc32)ccc1Cl [Chlorthalidone(R)] | 0.65 | Low (key: High: HIA value ≥0.7; Low: HIA value < 0.7) |
| C=CCC1(C(C)CCC)C(=O)NC(=O)NC1=O (stereo not shown) [Quinalbarbitone] | 0.9 | High (key: High: HIA value ≥0.7; Low: HIA value < 0.7) |
| C[C@]12CCC(=O)C=C1CC[C@@H]1[C@@H]2[C@@H](O)C[C@@]2(C)[C@H]1CC[C@]2(O)C(=O)CO [Hydrocortisone] | 0.91 | High (key: High: HIA value ≥0.7; Low: HIA value < 0.7) |
| CC[C@@H](CO)NC(=O)[C@@H]1C=C2c3cccc4c3c(cn4C)C[C@H]2N(C)C1 [Methysergide] | 1 | High (key: High: HIA value ≥0.7; Low: HIA value < 0.7) |
